Like-named read-outs stand apart in the source and are kept apart here.
Tests used:
[1] = system: VRE ATCC 51575; assay: Activity in blood plasma and liver homogenate; format: cell-based, E. faecalis; settings: for MIC: Enterococcus, VRE ATCC 51575
Protocol: (§1) Table S1: Activity of VanQAmC10 in mouse plasma and liver homogenate against MRSA […]
MIC of VanQAmC10 post incubation in (μM) […]
Activity in blood plasma and liver homogenate
To examine the susceptibility of VanQAmC10 to serum proteases, the antibacterial activities was tested in the presence of 50% of plasma and liver homogenate. Briefly, 250 μL of VanQAmC10 was added into 250 μL of fresh […] plasma and incubated at 37 °C. An aliquot of the samples 3 h and 24h post-incubation was diluted in 0.9% saline and the antibacterial activity (MIC) were determined against MRSA and VRE by following the same protocol as described above for the antibacterial assay. […]
50 μL of ∼10^6 CFU/mL bacterial inoculum (MRSA ATCC33591) was injected into the thigh. 1 h post-inoculation, animals were treated intraperitoneally twice with 12 h intervals with saline, vancomycin (12 mg kg−1), and VanQAmC10 (12 mg kg−1). 24 h post the first treatment, the animals were euthanized (using ether) and the thighs were collected aseptically. The thigh tissue was weighed and homogenized. The dilutions of the homogenate were plated onto agar plates, which were incubated overnight at about 37 °C. […]
In-vivo activity in murine burn wound infectionmodel 10-12

[2] = In-vivo toxicity in mice (LD50); set-up: species or system Balb/c female mice; settings: for LD50: single injection, 14 days
Protocol: The in vitro activity, low toxicity, and stability in plasma and liver homogenate, supported the potential of VanQAmC10 as a candidate for the treatment of bacterial infections. The efficacy of VanQAmC10 (8) against MRSA was tested in a neutropenic mouse thigh infection model. Infection was established by injecting them with 5 × 10^5 CFU of MRSA in the thigh. 1 h and 13 h post-infection, mice were treated with 12 mg kg^−1 of vancomycin and VanQAmC10 administered intraperitoneally (Fig. 6B). The mice were sacrificed 24 h post-infection. […] In the untreated group, the bacterial load increased to 8 log CFU g^−1. […] However, treatment with VanQAmC10 reduced the bacterial load to 3.3 log CFU g^−1, which is a 1.5 log CFU g^−1 lower bacterial load than observed against vancomycin.
as §1
MIC of VanQAmC10 post incubation in (μM)
Bacteria Plasma Liver homogenate Media […]
when administered subcutaneously. […]
of VanQAmC10 as compared to the previously developed molecule, VanQC14.3 This reduced toxicity of VanQAmC10 can be attributed to the presence of the amide spacer between the cationic moiety and the alkyl chain as mentioned in the previous section.
Table S2 In-vivo toxicity (LD50 values) of VanQAmC10 by various modes of administration Mode of administration LD 50 (mg/kg)
All reagents were purchased from Sigma-Aldrich and Spectrochem and used without further purification. All the solvents of reagent grade were purchased from Spectrochem and SD Fine.
Chloroform for column chromatography was purchased from SD Fine chemicals and distilled prior to use. HPLC grade acetonitrile was purchased from Spectrochem. Analytical thin layer chromatography (TLC) was performed on E. Merck TLC plates pre-coated with silica gel 60 F254 (250 μm thickness). Vancomycin derivative was purified by reverse phase HPLC using 0.1 % trifluoroacetic acid (TFA) in water/acetonitrile (0-100 %) as mobile phase. HPLC […]
The doses for administration, were given modified OECD guidelines. LD50 was determined using Spearman-Karber method. […]

[3] = system: VRSA; assay: MIC against VRSA (strain not specified / strains taken together); format: cell-based, S. aureus; settings: ratio of MICs
Protocol: The increase in the carbon content of substituted moieties from six (1) to seven (2 and 3) to ten (5) to twelve (4), increased activity.
VanQAmC14 (10): Yield 65%; HPLC purity 96%; 1H-NMR (400 MHz, DMSO-d6) δ/ppm:
Test compound was assayed in a micro -dilution broth format as per the CLSI guideline. The bacterial freeze dried stock samples were stored at -80 °C. About 5 μL of these stocks were added to 3 mL of the respective broth and the culture was grown for 6 h at 37°C with prior to the experiments. This 6 h grown culture was diluted to give effective cell concentration of 10 5 CFU/mL which was then used for determining MIC. Compounds were serially diluted 2 -fold, in sterile millipore water and 50 μL of these serial dilutions were added to the wells of 96 well plate followed by the addition of about 150 μL of bacterial solution. The plates were then incubated for 18-24 h at 37 °C. The O.D. value at 600 nm was recorded using TECAN (Infinite series, M200 pro) Plate Reade r. Each concentration had triplicate values and the whole experiment was done at least twice and the MIC value was determined by taking the average of triplicate O. D. values for each concentration and plotting it against concentration. The data was then subjected to sigmoidal fitting. From the curve the MIC value was determined, as the point where the O. D. was similar to that of control having no bacteria.

Row | SMILES | MIC ([1]; 50% plasma, 37 °C, read-out: MIC post incubation in plasma) [µM] | MIC ([1]; read-out: MIC post incubation in liver homogenate) [µM] | MIC ([1]; read-out: MIC post incubation in media) [µM] | change of MIC in plasma and liver homogenate ([1]; VRE) | dose well tolerated, all mice survived ([2]; intraperitoneal) [mg/kg] | LD50 ([2]; intraperitoneal) | LD50 ([2]; subcutaneous) | fold increase in activity as compared to vancomycin against VRSA [3] [fold]
1 | CCCCCCCCCCNC(=O)C[N+](C)(C)CCCNC(=O)C1NC(=O)C2NC(=O)C(NC(=O)C3NC(=O)C(CC(N)=O)NC(=O)C(NC(=O)C(CC(C)C)NC)C(O)c4ccc(c(Cl)c4)Oc4cc3cc(c4OC3OC(CO)C(O)C(O)C3OC3CC(C)(N)C(O)C(C)O3)Oc3ccc(cc3Cl)C2O)c2ccc(O)c(c2)-c2c(O)cc(O)cc21 (centres unmarked) [VanQAmC10 (8)] | 4 | 4 | 4 | remained unchanged | 130 | greater than 130 mg/kg | greater than 160 mg kg^−1 | –
2 | CNC(CC(C)C)C(=O)NC1C(=O)NC(CC(N)=O)C(=O)NC2C(=O)NC3C(=O)NC(C(=O)NC(C(=O)NCCC[N+](C)(C)Cc4ccc(-c5ccccc5)cc4)c4cc(O)cc(O)c4-c4cc3ccc4O)C(O)c3ccc(c(Cl)c3)Oc3cc2cc(c3OC2OC(CO)C(O)C(O)C2OC2CC(C)(N)C(O)C(C)O2)Oc2ccc(cc2Cl)C1O (centres unmarked) [VanQbiph (4)] | – | – | – | – | – | – | – | 22 to 88
